Data published in patent publication US10954269B2, “Anti-inflammatory tripeptides” (Dr. August Wolff Gmbh & Co. KG Arzneimittel, priority 2013, dated 2021).
Where a SMILES comes first, the peptide text is derived from it. [ ]: non-standard residue; d: D form. Tle = CC(C)(C)[C@H](N)C(=O)O; Aib = CC(C)(N)C(=O)O

Legend:
Balb/c mice = assay: Imiquimod-induced psoriasis in mice; assay type: in vivo; settings: i.v.; for mRNA expression of IFN-γ and IL-36 in lesional skin: compared to vehicle control; for clinical score: day 9
Method: Psoriasis in Balb/c mice is induced by daily application of topical Imiquimod for 8 days. Animal are treated with the test items (topical or systemically). On day 9 the skin phenotype is characterized using a clinical score system (0=normal mouse skin; 1=mild reddening; 2=erythema; 3=erythema, swelling; 4=erythema, swelling, scaling; 5=erythema, swelling, scaling, (bloody) lesions). Skin is analyzed histologically. Lymph nodes are analyzed by flow cytometry and RT-qPCR. mRNA expression in lesional skin is analyzed by RT-qPCR. Cytokine concentrations in the serum are assessed using the Luminex technology.

[1] = system: human keratinocytes (HaCaT); assay: Gene expression of pro-inflammatory cytokines (RT-qPCR) in human keratinocytes (HaCaT); assay type: cell-based; settings: HaCaT cells; PMA/Ionomycin; 10^−7 M, 10^−9 M and 10^−11 M
Excerpt: (§1) Cells were activated with PMA/Ionomycin and treated with PBS, α-MSH, K(D)PT and Examples 3, 8 and 9, respectively, at a concentration of 10^−9 M. Values are normalized to β-actin and are shown relative to the gene expression in PBS-stimulated cells.
(§2) Primary T-cells were isolated from peripheral blood from healthy volunteers and from secondary lymphatic organs from naïve C57BL/6 mice, respectively. The cells were stimulated with phorbol-12-myristate-13-acetate (PMA)/Ionomycin and interferon-gamma (IFN-γ), respectively, for 48 h to activate the cells. The activated cells release pro-inflammatory cytokines. In parallel a human (HaCaT) keratinocyte cell line was activated with PMA/Ionomycin and IFN-γ, respectively, too. […] At the same time release of anti-inflammatory IL-10 was inhibited. Two days after addition of PMA/Ionomycin and IFN-γ, respectively, the induction of IL-1 secretion was determined in the supernatant for proving that the cells are activated. […] The anti-inflammatory properties of the tripeptides were determined 48 h and 72 h following stimulation. A 13-plex-system based FACS analysis was used for showing the reduced secretion of pro-inflammatory cytokines in the supernatant. Data for IL-1, IL-2, IL-6, IL-12p70 IL-17, IFN-γ and TNF-α are considered to be most relevant. Thus, analysis of the anti-inflammatory properties of the tripeptides is preferably based on the results obtained for these analytes. […] Using this method the gene expression of pro-inflammatory markers like IL-6, IL-17, IFN-γ and TNF-α was determined.
(§3) In a third experiment murine and human T cells and HaCaT cells were stimulated with PMA/Ionomycin and treated with Examples 14, 15, 16 and 17 at 10^−7 M, 10^−9 M and 10^−11 M. Cytokine concentrations (IFN-γ, IL-17 and IL-10 for T cells and IFN-γ for HaCat) were assessed in the supernatants using the Luminex technology. Expression of genes coding for Il-1β, IL-6 and TNF-α was determined. […] Moreover, concentrations of pro-inflammatory cytokines IFN-γ and IL-17 was reduced in the supernatants whereas the concentration of anti-inflammatory cytokine IL-10 was increased.

primary murine T-cells = assay: Cytokine secretion on protein level in activated primary murine T-cells (13-plex FACS / Luminex, supernatant); assay type: cell-based, C57BL/6 mice; settings: murine T cells; PMA/Ionomycin; Luminex; all tested concentrations
Outline: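 T-cells from secondary lymphatic organs of naïve C57BL/6 mice, stimulated with PMA/Ionomycin or IFN-γ; supernatant cytokines measured by 13-plex FACS 48 h and 72 h after stimulation. In another run, PMA/Ionomycin-stimulated cells received compounds at 10^−7, 10^−9 and 10^−11 M, with IFN-γ, IL-17 and IL-10 measured by Luminex.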

primary human T cells = assay: Gene expression of pro-inflammatory cytokines (RT-qPCR) in primary human T cells; assay type: cell-based; settings: PMA/Ionomycin, 10^−7 M, 10^−9 M and 10^−11 M
Excerpt: as §1, §2, §3

primary murine T cells = assay: Gene expression of pro-inflammatory cytokines (RT-qPCR) in primary murine T cells; assay type: cell-based, C57BL/6 mice; settings: PMA/Ionomycin, 10^−7 M, 10^−9 M and 10^−11 M
Excerpt: as §1, §2, §3

[2] = system: human keratinocyte cell line (HaCaT); assay: Cytokine secretion on protein level in activated human keratinocyte cell line HaCaT (13-plex FACS / Luminex, supernatant); assay type: cell-based; settings: HaCaT; PMA/Ionomycin; Luminex; all tested concentrations
Outline: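 Stimulus: PMA/Ionomycin or IFN-γ, 48 h; cells: HaCaT or human peripheral-blood T-cells; tripeptide treatment; readout: supernatant cytokines via 13-plex FACS or Luminex, 48–72 h post-stimulation.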

primary human T-cells = assay: Cytokine secretion on protein level in activated primary human T-cells (13-plex FACS / Luminex, supernatant); assay type: cell-based; settings: human T cells; PMA/Ionomycin; Luminex; all tested concentrations
Outline: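 Cytokine protein in supernatant is read by multiplex FACS or Luminex. Tripeptide-treated HaCaT cells or blood-derived human T-cells are stimulated beforehand with PMA/Ionomycin or IFN-γ. The most relevant analytes are IL-1, IL-2, IL-6, IL-12p70, IL-17, IFN-γ and TNF-α, sampled 48 h and 72 h after stimulation.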

in vitro = settings: human, tissue homogenate, % of the starting concentration
Method: (§4) Human skin samples (ear skin, umbilical skin and juvenile foreskin) are combined and frozen in liquid nitrogen and homogenized. The resulting human skin homogenate is transferred portionwise (50-70 mg) to Protein LoBind Tubes (2 ml) and stored at −32° C. until use. At the beginning of the stability study the human skin homogenate is thawed. An aqueous solution of the tripeptide compound (1500 μl) with or without 0.02% sodium azide (cpeptide=160 μg/ml) is added and the mixture is incubated at 32° C. Samples were taken at 0, 30, 100, 300 and 1000 minutes. 100 μl sample are diluted with 1900 μl methanol containing an internal standard and analyzed with HPLC-MS. All analyses are performed in triplicate.

[3] = human, tissue homogenate, 1000 min, 160 μg/ml
Method: as §4

remaining at 5 h, 160 μg/ml (in vitro)	remaining at 1000 min, 160 μg/ml (in vitro)	% of the starting concentration [3]	Molecule	concentrations of TNF-α and IL-17 in the serum (Balb/c mice)	epidermal thickness (Balb/c mice)	mRNA expression of IFN-γ and IL-36 in lesional skin (Balb/c mice)	clinical score (Balb/c mice)	expression of pro-inflammatory cytokines IL-1β, IL-6 and TNF-α on mRNA level [1]	concentration of anti-inflammatory cytokine IL-10 in the supernatants (primary murine T-cells)	concentrations of pro-inflammatory cytokines IFN-γ and IL-17 in the supernatants (primary murine T-cells)	expression of pro-inflammatory cytokines IL-1β, IL-6 and TNF-α on mRNA level (primary human T cells)	expression of pro-inflammatory cytokines IL-1β, IL-6 and TNF-α on mRNA level (primary murine T cells)	concentration of pro-inflammatory cytokine IFN-γ in the supernatants [2]	concentration of anti-inflammatory cytokine IL-10 in the supernatants (primary human T-cells)	concentrations of pro-inflammatory cytokines IFN-γ and IL-17 in the supernatants (primary human T-cells)
–	–	–	H-[dF]-Pro-[Aib]-OH [Example 15]	reduced	reduced	reduced	reduced	reduced expression	increased	reduced	reduced expression	reduced expression	reduced	increased	reduced
58%	–	–	CC(C)(C)[C@H](NC(=O)[C@@H]1CCCN1C(=O)[C@@H](N)CCCCN)C(=O)O [Example 9, H-(L)-Lys-(L)-Pro-(L)-t-butyl-Gly-OH] (H-Lys-Pro-[Tle]-OH)	–	–	–	–	–	–	–	–	–	–	–	–
–	40%	47%	CC(C)(NC(=O)[C@@H]1CCCN1C(=O)[C@@H](N)CCCCN)C(=O)O [Example 8, H-(L)-Lys-(L)-Pro-Aib-OH] (H-Lys-Pro-[Aib]-OH)	–	–	–	–	–	–	–	–	–	–	–	–
–	–	–	N^α,N^α-dimethyl-(L)-Nle-(L)-Pro-Aib-OH [Example 16]	reduced	reduced	reduced	reduced	reduced expression	increased	reduced	reduced expression	reduced expression	reduced	increased	reduced
